ChEMBL document CHEMBL1159218, “Metabolites of the Palauan sponge Axinyssa aplysinoides” (J Nat Prod, 1995)
The source made the active and inactive calls. The calls are words filed in the database; no cut-off is given here.

Experiments:
[1] = tested on: Staphylococcus aureus; assay: Antibacterial activity against Staphylococcus aureus at 25 ug/disk by disc-diffusion assay; assay type: functional, organism-based
[2] = tested on: Bacillus subtilis; assay: Antibacterial activity against Bacillus subtilis at 10 ug/disk by disc-diffusion assay; assay type: functional, organism-based

## CC(C)[C@H]1CC[C@@H](C)C2=CC[C@](C)(NC=O)C[C@@H]21 (relative stereo)
[1]
  Activity: Active
[2]
  Activity: Active
